Experimental data: PMC4741798, “Imaging of carbonic anhydrase IX with an ^111In-labeled dual-motif inhibitor” (Oncotarget, 2015)
Where “and” joins values, the source holds several entries; their conditions need not be identical. Identical values can stand only once. Entries after “also recorded” stand apart in the source; their conditions may differ.

How the values were obtained:
SK-RC-52 xenografts = assay: Biodistribution in mice bearing SK-RC-52 xenografts; format: in vivo; conditions: for Biodistribution: Tumor: SK-RC-52 tumor; for Biodistribution: Tumor / Biodistribution: Bladder / Biodistribution: Blood / Biodistribution: Brain / Biodistribution: Fat / Biodistribution: Heart / Biodistribution: Kidney (kid) / Biodistribution: Liver / Biodistribution: Lung / Biodistribution: Muscle (mm) / Biodistribution: Pancreas / Biodistribution: Sm. intestine / Biodistribution: Spleen / Biodistribution: Stomach / Tumor/blood ratio / Tumor/kid (kidney) ratio / Tumor/mm (muscle) ratio: n = 5
Protocol: Mice bearing SK-RC-52 xenografts within the lower left flank were injected intravenously with 740 kBq (20 μCi) of [^111In]XYIMSR-01 in 200 μL of PBS. For in vivo competition (binding specificity) studies, tumor-bearing mice were injected with 740 kBq (20 μCi) of [^111In]XYIMSR-01 and 200 nmole of 1 in 200 μL of PBS concurrently. At 1 h, 4 h, 8 h, 24 h and 48 h post-injection, mice were sacrificed by cervical dislocation and the blood was immediately collected by cardiac puncture. Heart, lungs, pancreas, spleen, fat, brain, muscle, small intestines, liver, stomach, kidney, urinary bladder, and tumor were collected. Each organ was weighed and the tissue radioactivity was measured with an automated gamma counter (1282 Compugamma CS, Pharmacia/LKBNuclear, Inc., Mt. Waverly, Vic. Australia). The percentage of injected dose per gram of tissue (% ID/g) was calculated by comparison with samples of a standard dilution of the initial dose. All measurements were corrected for radioactive decay.
Data were expressed as mean ± standard deviation (SD). Prism software (GraphPAD, San Diego, California) was used to determine statistical significance. Statistical significance was calculated using a paired t test. P-values < 0.0001 were considered significant.

[1] = system: CAIX-expressing SK-RC-52 tumors; assay: SPECT/CT imaging of mice with SK-RC-52 tumors; format: in vivo; conditions: 14.8 MBq via tail vein
Protocol: Mice harboring subcutaneous SK-RC-52 tumors with the lower left flank were injected with 14.8 MBq (400 μCi) of [^111In]XYIMSR-01 in 250 μL of PBS (pH = 7.0) intravenously (tail vein). Anesthesia was then induced with 3% isofluorane and maintained at 2% isoflurane. Physiologic temperature was maintained with an external light source while the mouse was on the gantry. Imaging employed a CT-equipped Gamma Medica-Ideas SPECT scanner (Northridge, CA). SPECT data were acquired in 64 projections at 65 s per projection using medium energy pinhole collimators. A CT scan was performed in 512 projections at the end of each SPECT scan for anatomic co-registration. CT and SPECT scans were performed at 1, 4, 8, 24, and 48 h post-injection of [^111In]XYIMSR-01. Imaging data sets were reconstructed using the manufacturer's software. Display of images utilized Amide software (Dice Holdings, Inc. NY).

[2] = 24 h + Block (co-injected 200 nmole of 1)
[3] = 48 h + Block (co-injected 200 nmole of 1)
[4] = plateau followed by one phase decay fit of Table 1 data

## CC(CCC(=O)N[C@@H](CC(=O)N[C@@H](CC(=O)N[C@@H](CCCCn1cc(CCCC(=O)Nc2nnc(S(N)(=O)=O)s2)nn1)C(=O)NCCOCCOCCNC(=O)CN1CCN(CC(=O)[O-])CCN(CC(=O)[O-])CCN(CC(=O)[O-])CC1)C(=O)O)C(=O)O)(c1ccc(O)cc1)c1ccc(O)cc1.[111In+3] [[^111In]XYIMSR-01]
SK-RC-52 xenografts; 1 h post-injection, i.v.
  Biodistribution: Tumor: 26 %ID/g and 26.01 ± 5.74 %ID/g
  Biodistribution: Bladder: 4.90 ± 4.96 %ID/g
  Biodistribution: Blood: 1.34 ± 0.17 %ID/g
  Biodistribution: Brain: 1.23 ± 1.10 %ID/g
  Biodistribution: Fat: 1.03 ± 0.24 %ID/g
  Biodistribution: Heart: 5.98 ± 0.53 %ID/g
  Biodistribution: Kidney (kid): 71.26 ± 8.74 %ID/g
  Biodistribution: Liver: 8.36 ± 0.73 %ID/g
  Biodistribution: Lung: 45.85 ± 19.89 %ID/g
  Biodistribution: Muscle (mm): 2.34 ± 2.19 %ID/g
  Biodistribution: Pancreas: 3.81 ± 0.72 %ID/g
  Biodistribution: Sm. intestine: 9.37 ± 1.26 %ID/g
  Biodistribution: Spleen: 0.52 ± 0.04 %ID/g
  Biodistribution: Stomach: 16.71 ± 2.46 %ID/g
SK-RC-52 xenografts; 1 h post-injection
  Tumor/blood ratio: 19.7 and 19.7 ± 4.8
  Tumor/kid (kidney) ratio: 0.36 ± 0.06
  Tumor/mm (muscle) ratio: 12.7 and 12.7 ± 5.8
SK-RC-52 xenografts; 4 h post-injection, i.v.
  Biodistribution: Tumor: 20.83 ± 6.25 %ID/g
  Biodistribution: Bladder: 2.68 ± 1.89 %ID/g
  Biodistribution: Blood: 0.65 ± 0.06 %ID/g
  Biodistribution: Brain: 0.45 ± 0.06 %ID/g
  Biodistribution: Fat: 0.42 ± 0.22 %ID/g
  Biodistribution: Heart: 2.91 ± 0.45 %ID/g
  Biodistribution: Kidney (kid): 41.52 ± 6.07 %ID/g
  Biodistribution: Liver: 4.00 ± 0.58 %ID/g
  Biodistribution: Lung: 17.85 ± 3.55 %ID/g
  Biodistribution: Muscle (mm): 1.01 ± 0.28 %ID/g
  Biodistribution: Pancreas: 1.54 ± 0.40 %ID/g
  Biodistribution: Sm. intestine: 4.27 ± 0.69 %ID/g
  Biodistribution: Spleen: 0.51 ± 0.08 %ID/g
  Biodistribution: Stomach: 7.91 ± 1.28 %ID/g
SK-RC-52 xenografts; 4 h post-injection
  Tumor/blood ratio: 31.9 ± 9.4
  Tumor/kid (kidney) ratio: 0.50 ± 0.15
  Tumor/mm (muscle) ratio: 21.4 ± 7.2
SK-RC-52 xenografts; 8 h post-injection, i.v.
  Biodistribution: Tumor: 34.00 ± 15.16 %ID/g
  Biodistribution: Bladder: 2.28 ± 0.51 %ID/g
  Biodistribution: Blood: 0.48 ± 0.02 %ID/g
  Biodistribution: Brain: 0.59 ± 0.09 %ID/g
  Biodistribution: Fat: 0.45 ± 0.08 %ID/g
  Biodistribution: Heart: 2.61 ± 0.35 %ID/g
  Biodistribution: Kidney (kid): 28.79 ± 21.35 %ID/g
  Biodistribution: Liver: 3.65 ± 0.65 %ID/g
  Biodistribution: Lung: 17.39 ± 8.99 %ID/g
  Biodistribution: Muscle (mm): 1.09 ± 0.15 %ID/g
  Biodistribution: Pancreas: 1.61 ± 0.28 %ID/g
  Biodistribution: Sm. intestine: 4.31 ± 0.67 %ID/g
  Biodistribution: Spleen: 0.64 ± 0.07 %ID/g
  Biodistribution: Stomach: 8.74 ± 1.26 %ID/g
SK-RC-52 xenografts; 8 h post-injection
  Tumor/blood ratio: 77.0 ± 32.5
  Tumor/kid (kidney) ratio: 3.1 ± 3.1
  Tumor/mm (muscle) ratio: 34.2 ± 16.0
SK-RC-52 xenografts; [2]
  Biodistribution: Tumor: 1 %ID/g and 1.41 ± 0.20 %ID/g
  Biodistribution: Bladder: 0.20 ± 0.07 %ID/g
  Biodistribution: Blood: 0.03 ± 0.00 %ID/g
  Biodistribution: Brain: 0.03 ± 0.00 %ID/g
  Biodistribution: Fat: 0.02 ± 0.01 %ID/g
  Biodistribution: Heart: 0.04 ± 0.01 %ID/g
  Biodistribution: Kidney (kid): 0.68 ± 0.14 %ID/g
  Biodistribution: Liver: 0.10 ± 0.02 %ID/g
  Biodistribution: Lung: 0.12 ± 0.02 %ID/g
  Biodistribution: Muscle (mm): 0.02 ± 0.00 %ID/g
  Biodistribution: Pancreas: 0.03 ± 0.00 %ID/g
  Biodistribution: Sm. intestine: 0.08 ± 0.01 %ID/g
  Biodistribution: Spleen: 0.08 ± 0.01 %ID/g
  Biodistribution: Stomach: 0.14 ± 0.02 %ID/g
  Tumor/blood ratio: 45.2 ± 9.7
  Tumor/kid (kidney) ratio: 2.1 ± 0.3
  Tumor/mm (muscle) ratio: 91.4 ± 11.1
SK-RC-52 xenografts; 24 h post-injection
  tumor/liver ratio: 8.5
  Tumor/blood ratio: 178 and 178.1 ± 145.4
  Tumor/kid (kidney) ratio: 1.7 and 1.7 ± 1.2
  Tumor/mm (muscle) ratio: 68 and 68.4 ± 29.0
SK-RC-52 xenografts; 24 h post-injection, i.v.
  Biodistribution: Tumor: 25.62 ± 17.67 %ID/g
  Biodistribution: Bladder: 0.74 ± 0.17 %ID/g
  Biodistribution: Blood: 0.15 ± 0.02 %ID/g
  Biodistribution: Brain: 0.71 ± 0.85 %ID/g
  Biodistribution: Fat: 0.28 ± 0.19 %ID/g
  Biodistribution: Heart: 1.16 ± 0.20 %ID/g
  Biodistribution: Kidney (kid): 15.29 ± 1.69 %ID/g
  Biodistribution: Liver: 3.02 ± 3.46 %ID/g
  Biodistribution: Lung: 11.01 ± 3.71 %ID/g
  Biodistribution: Muscle (mm): 0.35 ± 0.12 %ID/g
  Biodistribution: Pancreas: 0.69 ± 0.18 %ID/g
  Biodistribution: Sm. intestine: 2.11 ± 0.33 %ID/g
  Biodistribution: Spleen: 0.69 ± 0.39 %ID/g
  Biodistribution: Stomach: 3.31 ± 1.25 %ID/g
SK-RC-52 xenografts; [3]
  Biodistribution: Tumor: 1 %ID/g and 1.22 ± 0.54 %ID/g
  Biodistribution: Bladder: 0.14 ± 0.03 %ID/g
  Biodistribution: Blood: 0.03 ± 0.00 %ID/g
  Biodistribution: Fat: 0.03 ± 0.01 %ID/g
  Biodistribution: Heart: 0.04 ± 0.01 %ID/g
  Biodistribution: Kidney (kid): 0.45 ± 0.09 %ID/g
  Biodistribution: Liver: 0.13 ± 0.04 %ID/g
  Biodistribution: Lung: 0.09 ± 0.02 %ID/g
  Biodistribution: Muscle (mm): 0.02 ± 0.00 %ID/g
  Biodistribution: Pancreas: 0.03 ± 0.01 %ID/g
  Biodistribution: Sm. intestine: 0.08 ± 0.02 %ID/g
  Biodistribution: Spleen: 0.11 ± 0.03 %ID/g
  Biodistribution: Stomach: 0.14 ± 0.03 %ID/g
  Tumor/blood ratio: 45.4 ± 13.8
  Tumor/kid (kidney) ratio: 2.7 ± 0.8
  Tumor/mm (muscle) ratio: 75.1 ± 17.7
SK-RC-52 xenografts; 48 h post-injection, i.v.
  Biodistribution: Tumor: 13.92 ± 6.67 %ID/g
  Biodistribution: Bladder: 0.38 ± 0.18 %ID/g
  Biodistribution: Blood: 0.06 ± 0.02 %ID/g
  Biodistribution: Brain: 0.41 ± 0.05 %ID/g
  Biodistribution: Fat: 0.25 ± 0.08 %ID/g
  Biodistribution: Heart: 0.84 ± 0.16 %ID/g
  Biodistribution: Kidney (kid): 8.78 ± 1.89 %ID/g
  Biodistribution: Liver: 1.65 ± 0.26 %ID/g
  Biodistribution: Lung: 9.22 ± 1.25 %ID/g
  Biodistribution: Muscle (mm): 0.39 ± 0.28 %ID/g
  Biodistribution: Pancreas: 0.59 ± 0.18 %ID/g
  Biodistribution: Sm. intestine: 1.22 ± 0.44 %ID/g
  Biodistribution: Spleen: 0.67 ± 0.13 %ID/g
  Biodistribution: Stomach: 1.82 ± 0.43 %ID/g
SK-RC-52 xenografts; 48 h post-injection
  Tumor/blood ratio: 212.0 ± 41.4
  Tumor/kid (kidney) ratio: 1.5 ± 0.5
  Tumor/mm (muscle) ratio: 52.0 ± 21.0
SK-RC-52 xenografts; [4]
  Calculated biological excretion half-life: Bladder: 3.730 hr
  Calculated biological excretion half-life: Blood: 3.246 hr
  Calculated biological excretion half-life: Brain: 3.926 hr
  Calculated biological excretion half-life: Fat: 1.536 hr
  Calculated biological excretion half-life: Heart: 3.538 hr
  Calculated biological excretion half-life: Kidney: 4.344 hr
  Calculated biological excretion half-life: Liver: 4.243 hr
  Calculated biological excretion half-life: Lung: 5.602 hr
  Calculated biological excretion half-life: Muscle: 2.534 hr
  Calculated biological excretion half-life: Pancreas: 3.179 hr
  Calculated biological excretion half-life: SK-RC-52 tumor: 12.27 hr
  Calculated biological excretion half-life: Small intestine: 5.597 hr
  Calculated biological excretion half-life: Stomach: 3.908 hr
[1]; 24-48 h post-injection
  retention of radioactivity seen by SPECT/CT at late time points (in words): nearly all of the radioactivity in the kidneys and other organs had been eliminated, with tumor still retaining significant amounts of radiotracer; also recorded: Retention of radioactivity was exclusively observed in tumors by 48 h
[1]; two mice
  tumor uptake seen by SPECT/CT (in words): radiotracer uptake was observed within the tumors at 1 h post-injection; also recorded: radiotracer uptake in tumor as early as 1 h post-injection
